Tests used:
Histone deacetylase 1 [1] = target: T1, Histone deacetylase 1 (Homo sapiens, UniProt Q13547); settings: Sf9
Description: Inhibition of C-terminal His-tagged and C-terminal FLAG-tagged full length human recombinant HDAC1 expressed in baculovirus coexpressed in fall armyworm Sf9 cells using carboxyfluorescein (FAM)-labeled acetylated/ trifluoroacetylated peptide as substrate assessed as residence time by fluorescence assay

Histone deacetylase 2 [2] = target: T2, Histone deacetylase 2 (Homo sapiens, UniProt Q92769); settings: Sf9
Description: Inhibition of full length human recombinant HDAC2 expressed in baculovirus coexpressed in fall armyworm Sf9 cells using carboxyfluorescein (FAM)-labeled acetylated/ trifluoroacetylated peptide as substrate assessed as residence time by fluorescence assay

Histone deacetylase 3 [3] = target: T3, Histone deacetylase 3 (Homo sapiens, UniProt O15379)
Description: Inhibition of full length human recombinant HDAC3 expressed in baculovirus using carboxyfluorescein (FAM)-labeled acetylated/ trifluoroacetylated peptide as substrate assessed as residence time by fluorescence assay

[4] = Stability in mouse liver microsomes assessed as compound remaining at 1 uM after 60 mins by UPLC-MS analysis; assay type: ADME; settings: read-out: Stability
[5] = Stability in mouse plasma assessed as compound remaining at 5 uM after 5 hrs by UPLC-MS analysis; assay type: ADME, cell-free; settings: read-out: Stability
Mus musculus [6] = assay: Binding affinity to mouse brain HDAC1 at 10 mg/kg, ip; assay type: functional
Mus musculus [7] = assay: Binding affinity to mouse brain HDAC2 at 10 mg/kg, ip; assay type: functional
Histone deacetylase 2 [8] = target: T2, Histone deacetylase 2; assay: biochemical; set-up: species or system Sf9
Description: Inhibition full length human recombinant HDAC2 expressed in baculovirus coexpressed in fall armyworm Sf9 cells using carboxyfluorescein (FAM)-labeled acetylated/ trifluoroacetylated peptide as substrate after 60 mins by fluorescence assay

Histone deacetylase 1 [9] = target: T1, Histone deacetylase 1; assay: biochemical
Description: Inhibition of C-terminal His-tagged and C-terminal FLAG-tagged full length human recombinant HDAC1 expressed in baculovirus coexpressed in fall armyworm Sf9 cells using carboxyfluorescein (FAM)-labeled acetylated/ trifluoroacetylated peptide as substrate after 60 mins by fluorescence assay

Histone deacetylase 3 [10] = target: T3, Histone deacetylase 3; remark: listed apart in the source
Description: Inhibition full length human recombinant HDAC3 expressed in baculovirus using carboxyfluorescein (FAM)-labeled acetylated/ trifluoroacetylated peptide as substrate after 60 mins by fluorescence assay

Histone deacetylase 5 = Histone deacetylase 5 (Homo sapiens, UniProt Q9UQL6); assay: (§1) Inhibition of N-terminal GST-tagged full length human recombinant HDAC5 expressed in baculovirus coexpressed in fall armyworm Sf9 cells using carboxyfluorescein (FAM)-labeled acetylated/ trifluoroacetylated peptide as substrate after 60 mins by fluorescence assay
Chain of Histone deacetylase 5 (Q9UQL6 whole entry): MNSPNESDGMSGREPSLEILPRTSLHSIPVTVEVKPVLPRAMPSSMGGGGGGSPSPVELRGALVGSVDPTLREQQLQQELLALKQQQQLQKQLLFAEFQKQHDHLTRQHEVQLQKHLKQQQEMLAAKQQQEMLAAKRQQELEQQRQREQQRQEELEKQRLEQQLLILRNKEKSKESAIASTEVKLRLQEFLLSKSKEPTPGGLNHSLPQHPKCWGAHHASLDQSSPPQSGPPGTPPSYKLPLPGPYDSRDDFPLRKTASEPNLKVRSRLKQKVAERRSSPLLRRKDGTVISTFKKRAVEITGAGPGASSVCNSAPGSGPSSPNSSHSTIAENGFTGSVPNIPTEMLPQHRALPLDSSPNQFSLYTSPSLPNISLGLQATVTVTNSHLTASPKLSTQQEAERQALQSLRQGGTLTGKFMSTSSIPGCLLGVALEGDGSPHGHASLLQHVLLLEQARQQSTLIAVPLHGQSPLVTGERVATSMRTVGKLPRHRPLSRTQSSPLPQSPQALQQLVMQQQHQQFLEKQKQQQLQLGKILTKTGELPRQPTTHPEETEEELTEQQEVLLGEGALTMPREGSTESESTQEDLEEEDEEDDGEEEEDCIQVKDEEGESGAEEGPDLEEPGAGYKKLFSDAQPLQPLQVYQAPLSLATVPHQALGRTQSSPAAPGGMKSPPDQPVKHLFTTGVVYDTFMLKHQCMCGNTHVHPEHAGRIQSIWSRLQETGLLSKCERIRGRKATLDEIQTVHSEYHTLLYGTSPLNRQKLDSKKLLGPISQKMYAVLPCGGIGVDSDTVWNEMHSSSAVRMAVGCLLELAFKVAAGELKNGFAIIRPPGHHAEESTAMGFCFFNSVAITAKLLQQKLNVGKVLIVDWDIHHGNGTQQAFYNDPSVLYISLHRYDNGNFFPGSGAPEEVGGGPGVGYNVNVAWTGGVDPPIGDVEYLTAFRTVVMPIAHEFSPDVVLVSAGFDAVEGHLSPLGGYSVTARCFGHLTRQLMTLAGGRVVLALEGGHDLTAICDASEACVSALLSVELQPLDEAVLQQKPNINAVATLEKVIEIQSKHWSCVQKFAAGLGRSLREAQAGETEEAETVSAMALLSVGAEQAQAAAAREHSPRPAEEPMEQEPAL

[11] = Half life in Sprague-Dawley rat plasma at 1 mg/kg, po; assay type: ADME, organism-based
[12] = Cmax in Sprague-Dawley rat brain at 1 mg/kg, po; assay type: ADME, organism-based; set-up: dose 1 mg/kg, route oral
[13] = target: T4, Protein deacetylase HDAC6 (Homo sapiens, UniProt Q9UBN7); assay: Inhibition of human recombinant HDAC6 expressed in baculovirus coexpressed in fall armyworm Sf9 cells using carboxyfluorescein (FAM)-labeled acetylated/ trifluoroacetylated peptide as substrate after 60 mins by fluorescence assay
T4 sequence (Q9UBN7 whole entry): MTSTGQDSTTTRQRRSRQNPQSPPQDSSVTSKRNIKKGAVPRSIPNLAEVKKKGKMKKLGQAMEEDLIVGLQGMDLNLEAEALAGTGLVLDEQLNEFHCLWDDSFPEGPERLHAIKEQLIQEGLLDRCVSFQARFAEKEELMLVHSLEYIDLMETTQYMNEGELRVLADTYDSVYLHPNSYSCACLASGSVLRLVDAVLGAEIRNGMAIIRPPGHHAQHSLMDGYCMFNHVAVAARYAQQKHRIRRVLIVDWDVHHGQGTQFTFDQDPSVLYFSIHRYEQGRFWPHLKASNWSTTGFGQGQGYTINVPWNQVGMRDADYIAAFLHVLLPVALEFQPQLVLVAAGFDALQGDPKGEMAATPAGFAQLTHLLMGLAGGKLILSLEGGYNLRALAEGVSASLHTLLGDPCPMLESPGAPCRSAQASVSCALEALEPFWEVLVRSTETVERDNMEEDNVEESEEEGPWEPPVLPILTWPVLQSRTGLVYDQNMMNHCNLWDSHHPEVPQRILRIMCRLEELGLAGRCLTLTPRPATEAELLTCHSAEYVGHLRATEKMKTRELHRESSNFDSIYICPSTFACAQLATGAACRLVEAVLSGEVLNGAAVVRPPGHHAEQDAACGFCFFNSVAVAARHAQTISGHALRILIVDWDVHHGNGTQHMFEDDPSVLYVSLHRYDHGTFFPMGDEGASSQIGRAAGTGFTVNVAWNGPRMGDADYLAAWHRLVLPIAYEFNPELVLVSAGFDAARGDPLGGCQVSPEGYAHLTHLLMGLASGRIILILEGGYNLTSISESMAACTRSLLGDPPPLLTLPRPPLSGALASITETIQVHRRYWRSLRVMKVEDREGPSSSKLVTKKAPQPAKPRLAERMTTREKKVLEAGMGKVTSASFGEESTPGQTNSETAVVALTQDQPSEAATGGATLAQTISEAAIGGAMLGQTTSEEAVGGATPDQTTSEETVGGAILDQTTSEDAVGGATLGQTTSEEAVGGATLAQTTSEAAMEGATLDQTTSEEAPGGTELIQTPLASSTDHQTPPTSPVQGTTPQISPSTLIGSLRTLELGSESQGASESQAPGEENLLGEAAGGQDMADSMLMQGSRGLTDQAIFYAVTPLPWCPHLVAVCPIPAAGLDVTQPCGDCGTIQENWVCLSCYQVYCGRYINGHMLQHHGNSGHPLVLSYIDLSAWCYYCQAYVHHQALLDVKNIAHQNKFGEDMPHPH

[14] = AUC in Sprague-Dawley rat plasma at 1 mg/kg, po; assay type: ADME, organism-based
[15] = Oral bioavailability in Sprague-Dawley rat at 1 mg/kg; assay type: ADME, organism-based; settings: in vivo
[16] = Cmax in Sprague-Dawley rat plasma at 1 mg/kg, po; assay type: ADME, organism-based; set-up: dose 1 mg/kg, route oral
Histone deacetylase 4 = Histone deacetylase 4 (Homo sapiens, UniProt P56524); assay: as §1, with “and C-terminal His-tagged” for “full length”, “HDAC4 (627 to 1084 residues )” for “HDAC5”
Chain of Histone deacetylase 4 (P56524 whole entry, the tested form may be a part): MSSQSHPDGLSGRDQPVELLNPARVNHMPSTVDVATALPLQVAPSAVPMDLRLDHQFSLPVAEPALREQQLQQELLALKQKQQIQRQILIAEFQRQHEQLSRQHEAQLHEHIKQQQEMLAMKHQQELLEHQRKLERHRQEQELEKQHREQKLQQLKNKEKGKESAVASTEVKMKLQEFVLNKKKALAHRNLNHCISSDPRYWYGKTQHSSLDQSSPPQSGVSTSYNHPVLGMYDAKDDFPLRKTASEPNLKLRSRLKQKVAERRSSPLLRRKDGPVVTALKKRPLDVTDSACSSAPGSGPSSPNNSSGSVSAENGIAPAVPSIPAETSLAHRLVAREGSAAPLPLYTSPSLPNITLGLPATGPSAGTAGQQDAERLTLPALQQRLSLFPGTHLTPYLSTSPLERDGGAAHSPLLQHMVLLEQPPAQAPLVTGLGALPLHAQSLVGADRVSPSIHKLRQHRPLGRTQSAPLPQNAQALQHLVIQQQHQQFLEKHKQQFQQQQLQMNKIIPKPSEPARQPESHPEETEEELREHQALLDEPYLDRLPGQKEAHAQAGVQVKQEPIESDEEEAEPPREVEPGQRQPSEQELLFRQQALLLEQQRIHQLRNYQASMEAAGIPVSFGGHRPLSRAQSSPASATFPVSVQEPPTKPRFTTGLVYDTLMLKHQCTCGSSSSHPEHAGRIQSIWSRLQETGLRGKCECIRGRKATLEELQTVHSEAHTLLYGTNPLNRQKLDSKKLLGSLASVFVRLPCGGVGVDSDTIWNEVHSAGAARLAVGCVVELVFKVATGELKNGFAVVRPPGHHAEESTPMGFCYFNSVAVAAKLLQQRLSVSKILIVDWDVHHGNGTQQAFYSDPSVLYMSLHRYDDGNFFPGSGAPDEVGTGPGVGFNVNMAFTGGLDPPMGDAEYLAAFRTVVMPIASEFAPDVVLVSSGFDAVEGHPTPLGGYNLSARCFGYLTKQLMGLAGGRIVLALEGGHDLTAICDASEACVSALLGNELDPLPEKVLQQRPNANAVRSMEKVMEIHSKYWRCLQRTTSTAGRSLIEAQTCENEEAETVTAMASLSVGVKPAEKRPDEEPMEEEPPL

Histone deacetylase 9 = Histone deacetylase 9 (Homo sapiens, UniProt Q9UKV0); assay: Inhibition of C-terminal His-tagged human recombinant HDAC9 (604 to 1066 residues) expressed in baculovirus coexpressed in fall armyworm Sf9 cells using carboxyfluorescein (FAM)-labeled acetylated/ trifluoroacetylated peptide as substrate after 60 mins by fluorescence assay
Chain of Histone deacetylase 9 (Q9UKV0 whole entry, the tested form may be a part): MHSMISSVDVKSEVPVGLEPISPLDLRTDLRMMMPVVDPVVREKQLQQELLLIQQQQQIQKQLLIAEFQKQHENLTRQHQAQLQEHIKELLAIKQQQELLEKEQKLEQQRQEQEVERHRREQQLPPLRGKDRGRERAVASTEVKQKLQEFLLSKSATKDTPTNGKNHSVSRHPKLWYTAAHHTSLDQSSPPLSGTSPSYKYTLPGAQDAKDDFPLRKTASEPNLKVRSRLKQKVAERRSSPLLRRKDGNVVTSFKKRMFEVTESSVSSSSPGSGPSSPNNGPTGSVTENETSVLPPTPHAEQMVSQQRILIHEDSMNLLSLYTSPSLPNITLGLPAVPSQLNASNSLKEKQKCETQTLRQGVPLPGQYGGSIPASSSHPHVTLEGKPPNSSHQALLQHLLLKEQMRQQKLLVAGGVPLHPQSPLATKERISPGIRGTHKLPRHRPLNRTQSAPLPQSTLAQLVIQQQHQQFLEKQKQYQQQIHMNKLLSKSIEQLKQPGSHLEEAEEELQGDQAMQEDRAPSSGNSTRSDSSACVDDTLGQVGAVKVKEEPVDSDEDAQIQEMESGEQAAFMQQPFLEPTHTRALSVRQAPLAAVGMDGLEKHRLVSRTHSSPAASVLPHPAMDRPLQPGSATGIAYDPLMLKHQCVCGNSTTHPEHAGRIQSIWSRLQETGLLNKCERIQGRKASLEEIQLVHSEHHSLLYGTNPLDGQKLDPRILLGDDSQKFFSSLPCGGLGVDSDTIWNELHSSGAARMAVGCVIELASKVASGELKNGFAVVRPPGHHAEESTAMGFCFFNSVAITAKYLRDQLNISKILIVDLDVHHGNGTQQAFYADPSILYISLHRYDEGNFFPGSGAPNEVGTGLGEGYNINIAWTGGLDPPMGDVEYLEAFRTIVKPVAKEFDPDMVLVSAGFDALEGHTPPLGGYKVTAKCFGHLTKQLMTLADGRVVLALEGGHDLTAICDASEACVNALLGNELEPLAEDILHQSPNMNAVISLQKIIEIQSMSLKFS

[17] = Half life in Sprague-Dawley rat brain at 1 mg/kg, po; assay type: ADME, organism-based
Histone deacetylase 8 = target: T5, Histone deacetylase 8 (Homo sapiens, UniProt Q9BY41); assay: Inhibition of C-terminal His-tagged full length human recombinant HDAC8 expressed in baculovirus coexpressed in fall armyworm Sf9 cells using carboxyfluorescein (FAM)-labeled acetylated/ trifluoroacetylated peptide as substrate after 60 mins by fluorescence assay
T5 sequence (Q9BY41 whole entry): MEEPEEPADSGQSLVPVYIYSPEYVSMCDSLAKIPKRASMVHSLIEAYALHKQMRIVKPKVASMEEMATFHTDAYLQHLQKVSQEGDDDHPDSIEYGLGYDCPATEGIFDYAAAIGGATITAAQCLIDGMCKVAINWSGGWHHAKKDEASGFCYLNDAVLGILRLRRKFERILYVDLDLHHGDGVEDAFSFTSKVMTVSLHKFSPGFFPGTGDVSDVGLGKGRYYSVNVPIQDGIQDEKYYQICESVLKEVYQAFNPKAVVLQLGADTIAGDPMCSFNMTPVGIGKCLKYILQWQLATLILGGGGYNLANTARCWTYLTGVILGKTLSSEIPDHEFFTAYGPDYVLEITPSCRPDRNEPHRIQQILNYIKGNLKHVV

[18] = Ratio of Cmax in brain to plasma in Sprague-Dawley rat at 1 mg/kg, po; assay type: ADME, organism-based
Histone deacetylase 7 = target: T6, Histone deacetylase 7 (Homo sapiens, UniProt Q8WUI4); assay: Inhibition of N-terminal GST-tagged human recombinant HDAC7 (518 to end residues) expressed in baculovirus coexpressed in fall armyworm Sf9 cells using carboxyfluorescein (FAM)-labeled acetylated/ trifluoroacetylated peptide as substrate after 60 mins by fluorescence assay
T6 sequence (Q8WUI4 whole entry): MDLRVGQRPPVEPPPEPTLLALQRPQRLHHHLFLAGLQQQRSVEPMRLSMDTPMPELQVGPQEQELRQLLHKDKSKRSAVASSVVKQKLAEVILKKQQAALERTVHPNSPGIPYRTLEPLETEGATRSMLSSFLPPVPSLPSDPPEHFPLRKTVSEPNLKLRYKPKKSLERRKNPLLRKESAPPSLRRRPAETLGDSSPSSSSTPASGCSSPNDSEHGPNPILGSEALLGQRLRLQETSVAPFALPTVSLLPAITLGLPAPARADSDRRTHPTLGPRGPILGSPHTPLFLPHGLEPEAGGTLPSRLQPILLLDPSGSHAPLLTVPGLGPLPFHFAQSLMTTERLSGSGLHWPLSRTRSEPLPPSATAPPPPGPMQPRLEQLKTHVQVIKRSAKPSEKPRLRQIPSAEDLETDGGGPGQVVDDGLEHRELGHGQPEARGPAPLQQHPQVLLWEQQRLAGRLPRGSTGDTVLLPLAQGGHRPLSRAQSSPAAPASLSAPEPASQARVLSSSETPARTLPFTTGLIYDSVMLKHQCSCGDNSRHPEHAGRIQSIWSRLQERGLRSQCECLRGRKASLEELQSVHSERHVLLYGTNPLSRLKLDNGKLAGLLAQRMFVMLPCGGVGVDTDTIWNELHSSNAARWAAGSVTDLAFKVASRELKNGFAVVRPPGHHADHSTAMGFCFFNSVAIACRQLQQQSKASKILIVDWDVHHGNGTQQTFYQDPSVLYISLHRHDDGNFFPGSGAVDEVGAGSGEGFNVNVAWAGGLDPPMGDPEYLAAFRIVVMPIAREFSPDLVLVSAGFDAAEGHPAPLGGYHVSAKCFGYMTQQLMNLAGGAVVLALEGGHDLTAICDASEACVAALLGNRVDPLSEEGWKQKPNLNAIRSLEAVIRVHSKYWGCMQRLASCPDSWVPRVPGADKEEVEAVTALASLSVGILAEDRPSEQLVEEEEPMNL

[19] = AUC in Sprague-Dawley rat brain at 1 mg/kg, po; assay type: ADME, organism-based
[20] = Ratio of AUC in brain to plasma in Sprague-Dawley rat at 1 mg/kg, po; assay type: ADME, organism-based; settings: read-out: Ratio AUC

T3 sequence (O15379 whole entry): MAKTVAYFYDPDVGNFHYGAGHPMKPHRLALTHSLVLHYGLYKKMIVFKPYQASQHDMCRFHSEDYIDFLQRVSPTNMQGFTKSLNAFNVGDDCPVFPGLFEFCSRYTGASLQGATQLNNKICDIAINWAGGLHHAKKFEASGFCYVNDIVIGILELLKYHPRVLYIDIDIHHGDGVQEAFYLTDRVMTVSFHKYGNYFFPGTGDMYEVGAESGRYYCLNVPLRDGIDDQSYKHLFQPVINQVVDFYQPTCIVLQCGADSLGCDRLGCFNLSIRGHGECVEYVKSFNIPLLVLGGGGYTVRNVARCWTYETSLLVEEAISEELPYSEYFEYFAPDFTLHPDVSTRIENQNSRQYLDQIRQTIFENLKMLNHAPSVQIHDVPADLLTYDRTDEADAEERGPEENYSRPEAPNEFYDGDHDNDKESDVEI
T2 sequence (Q92769 whole entry): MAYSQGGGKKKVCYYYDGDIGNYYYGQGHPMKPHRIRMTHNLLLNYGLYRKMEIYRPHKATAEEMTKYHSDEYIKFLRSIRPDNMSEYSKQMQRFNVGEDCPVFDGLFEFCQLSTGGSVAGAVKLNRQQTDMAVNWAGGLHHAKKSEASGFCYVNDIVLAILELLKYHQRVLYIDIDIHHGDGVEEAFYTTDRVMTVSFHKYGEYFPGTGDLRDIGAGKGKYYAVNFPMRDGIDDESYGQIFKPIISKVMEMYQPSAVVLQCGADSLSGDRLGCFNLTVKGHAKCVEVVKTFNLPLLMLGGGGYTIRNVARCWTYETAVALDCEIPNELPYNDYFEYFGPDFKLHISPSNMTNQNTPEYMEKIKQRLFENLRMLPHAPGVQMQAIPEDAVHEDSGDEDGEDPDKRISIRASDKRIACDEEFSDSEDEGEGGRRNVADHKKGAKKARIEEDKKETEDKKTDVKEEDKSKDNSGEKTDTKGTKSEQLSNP
T1 sequence (Q13547 whole entry): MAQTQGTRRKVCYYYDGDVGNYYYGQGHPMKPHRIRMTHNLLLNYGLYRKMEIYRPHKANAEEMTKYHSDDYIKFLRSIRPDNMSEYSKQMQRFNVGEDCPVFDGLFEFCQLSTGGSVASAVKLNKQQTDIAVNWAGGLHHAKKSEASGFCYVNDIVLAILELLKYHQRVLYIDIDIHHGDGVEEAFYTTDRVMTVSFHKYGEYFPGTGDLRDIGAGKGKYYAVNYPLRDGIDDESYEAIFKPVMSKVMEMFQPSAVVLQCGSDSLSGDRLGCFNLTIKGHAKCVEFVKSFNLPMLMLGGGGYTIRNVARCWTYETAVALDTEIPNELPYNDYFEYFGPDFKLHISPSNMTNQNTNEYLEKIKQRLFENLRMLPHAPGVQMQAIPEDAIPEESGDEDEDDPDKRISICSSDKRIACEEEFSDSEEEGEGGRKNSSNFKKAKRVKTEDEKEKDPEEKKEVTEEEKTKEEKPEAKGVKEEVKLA

Nc1ccc(-c2cccc(F)c2)cc1NC(=O)C1CCOCC1
T1/2 (Histone deacetylase 1 [1]): 9.67 min
T1/2 (Histone deacetylase 2 [2]): 12.3 min
T1/2 (Histone deacetylase 3 [3]): > 33.3 min

Nc1ccc(-c2cccnc2)cc1NC(=O)C1CCOCC1
T1/2 (Histone deacetylase 1 [1]): 6.45 min
T1/2 (Histone deacetylase 3 [3]): 20.8 min

Nc1ccc(-c2ccc(F)cc2)cc1NC(=O)C1CCOCC1
remaining at 1 h, 1 µM [4]: 54%
remaining at 5 h, 5 µM [5]: 93%
Activity (Mus musculus [6]): 68%
Activity (Mus musculus [7]): 10%

Nc1ccc(-c2ccc(F)cc2)cc1NC(=O)C1Cc2ccccc2CO1 (centres undefined)
remaining at 5 h, 5 µM [5]: 11.1%
IC50 (Histone deacetylase 2 [8]): 0.119 µM
IC50 (Histone deacetylase 1 [9]): 0.045 µM
IC50 (Histone deacetylase 3 [10]): 25.9 µM

Nc1ccc(-c2ccncc2)cc1NC(=O)C1CCOCC1
T1/2 (Histone deacetylase 1 [1]): 2.35 min
T1/2 (Histone deacetylase 3 [3]): > 33.3 min

Nc1ccc(-c2ccc(F)cc2)cc1NC(=O)[C@@H]1CCCCO1
remaining at 5 h, 5 µM [5]: 0%
IC50 (Histone deacetylase 2 [8]): 1.45 µM
IC50 (Histone deacetylase 1 [9]): 1.43 µM
IC50 (Histone deacetylase 3 [10]): 5.95 µM

Nc1ccc(-c2ccc(F)cc2)cc1NC(=O)C1C2COCC21 (centres undefined)
T1/2 (Histone deacetylase 1 [1]): 13 min
T1/2 (Histone deacetylase 2 [2]): 58 min
remaining at 1 h, 1 µM [4]: 60%
remaining at 5 h, 5 µM [5]: 94.1%
T1/2 (Histone deacetylase 3 [3]): 217 min

Nc1ccc(-c2ccc(F)cc2)cc1NC(=O)C1CCCOC1 (centres undefined)
IC50 (Histone deacetylase 2 [8]): 4.73 µM
IC50 (Histone deacetylase 1 [9]): 1.22 µM
IC50 (Histone deacetylase 3 [10]): 19.8 µM

Nc1ccc(-c2ccc(C(F)(F)F)cc2)cc1NC(=O)C1CCOCC1
T1/2 (Histone deacetylase 1 [1]): 26.7 min
T1/2 (Histone deacetylase 2 [2]): > 33.3 min
T1/2 (Histone deacetylase 3 [3]): > 33.3 min

Nc1ccc(-c2ccc(F)cc2)cc1NC(=O)C1CCc2ccccc2O1 (centres undefined)
remaining at 5 h, 5 µM [5]: 3.7%
IC50 (Histone deacetylase 2 [8]): 6.56 µM
IC50 (Histone deacetylase 1 [9]): 5.59 µM
IC50 (Histone deacetylase 3 [10]): 6.26 µM

Nc1ccc(-c2ccc(F)cc2)cc1NC(=O)[C@H]1CCCCO1
remaining at 5 h, 5 µM [5]: 0%
IC50 (Histone deacetylase 2 [8]): 1.29 µM
IC50 (Histone deacetylase 1 [9]): 0.467 µM
IC50 (Histone deacetylase 3 [10]): 5.73 µM

Nc1ccc(-c2ccccc2)cc1NC(=O)C1CCOCC1
T1/2 (Histone deacetylase 1 [1]): 0.119 min
T1/2 (Histone deacetylase 3 [3]): 3.85 min

Nc1ccc(-c2ccc(F)cc2)cc1NC(=O)C1COc2ccccc2C1 (centres undefined)
remaining at 1 h, 1 µM [4]: 25%
remaining at 5 h, 5 µM [5]: 100%

Nc1ccc(-c2ccc(F)cc2)cc1NC(=O)[C@@H]1C[C@H]2CC[C@@H](C1)O2
IC50 (Histone deacetylase 5): > 33.3 µM
half-life [11]: 282 min
Cmax [12]: 890 nM
IC50 [13]: > 33.3 µM
T1/2 (Histone deacetylase 1 [1]): 3 min
AUC [14]: 10.8 µM·h
bioavailability [15]: 33.4%
Cmax [16]: 3970 nM
T1/2 (Histone deacetylase 2 [2]): 37 min
IC50 (Histone deacetylase 4): > 33.3 µM
remaining at 1 h, 1 µM [4]: 62%
IC50 (Histone deacetylase 9): > 33.3 µM
half-life [17]: 146 min
IC50 (Histone deacetylase 8): > 33.3 µM
Kp [18]: 0.22
IC50 (Histone deacetylase 7): > 33.3 µM
remaining at 5 h, 5 µM [5]: 114%
Activity (Mus musculus [6]): 42%
T1/2 (Histone deacetylase 3 [3]): 132 min
AUC [19]: 1.8 µM·h
Kp [20]: 0.17
Activity (Mus musculus [7]): 10%

— ChEMBL document CHEMBL3826926, “Kinetic and structural insights into the binding of histone deacetylase 1 and 2 (HDAC1, 2) inhibitors” (Bioorg Med Chem, 2016)
